Results from PMC6683251, “Flavanol Bioavailability in Two Cocoa Products with Different Phenolic Content. A Comparative Study in Humans” (Nutrients, 2019).
Read-outs that look alike come from different tables or passages of the source.

Experiments:
[1] = cited from earlier work
[2] = Urinary excretion of flavanol metabolites (0-24 h) after a single serving of soluble cocoa product (HPLC-ESI-QToF-MS); assay type: in vivo, human; conditions: for Excreted in urine, Total: 24 h urine; for Excreted in urine, Total / Excreted in urine, 0–4 h / Excreted in urine, 4–8 h / Excreted in urine, 8–12 h / Excreted in urine, 12–24 h: mean ± SD, n = 13
Method in brief: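 Fasted women drank 15 g CC or 25 g CC-PP soluble cocoa in 200 mL semi-skimmed milk, in a randomized, single-blind design with visits two weeks apart and a 3-day low-polyphenol diet beforehand. Excreted amounts were normalized to urine volume per interval, quantified against standards or precursor calibration curves.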

[3] = Plasma nutrikinetics of flavanol metabolites after a single serving of soluble cocoa product (HPLC-ESI-QToF-MS); assay type: in vivo, human
Protocol: The study was carried out in thirteen healthy subjects (3 men and 10 women); the mens’ average age and body mass index were 26.67 ± 3.21 year and 22.47 ± 2.97 kg/m^2, respectively, and womens’ were 32.60 ± 9.85 year and 23.36 ± 3.73 kg/m^2, respectively. They were non-smoker, non-vegetarian, non-pregnant women, who were not taking any medication or nutritional supplements, and were not suffering from any chronic pathology or gastrointestinal disorder. The sample size was estimated attending to similar previous bioavailability studies. The volunteers gave their informed consent prior to participation.
The present randomized, single-blind study was carried out at the Human Nutrition Unit (HNU) of the Institute of Food Science, Technology and Nutrition (ICTAN). Volunteers attended the HNU on two days, separated by two weeks. Three days previous to each visit, participants were instructed not to consume cocoa products (chocolate, soluble cocoa, etc.), juices, tea, wine, grape must, oranges, tangerines, apples, grapes, strawberries or other berries, beets, onions, soybeans and soy derivatives. In addition, volunteers were asked to complete a 24 h food intake recall the day before they attended the HNU in order to monitor any possible food restriction incompliance.
On each intervention day, volunteers arrived at the HNU after an overnight fast. Prior to the intake of the soluble cocoa product, a nurse inserted a cannula in the cubital vein of the non-prevailing arm of the volunteers and blood samples were collected into EDTA-coated tubes at baseline (t = 0) and 0.5, 1, 2, 3, 4, 6, and 8 h after consuming the corresponding cocoa product. The soluble cocoa products, either 15 g of CC or 25 g CC-PP, were dissolved in 200 mL of semi-skimmed milk following manufacturer’s preparation instructions. Plasma was separated by centrifugation (10 min, 3000 rpm, 4 °C) and stored at −80 °C until further analysis. Urine samples were collected at different time intervals (t = −2–0, 0–4, 4–8, 8–12, and 12–24 h) in urine collection flasks that contained 0.5 g of ascorbic acid as preservative and were aliquoted and frozen at −20 °C until analysis. A polyphenol-free breakfast, lunch and afternoon snack were provided 2 h, 4 h, and 8 h after consumption of cocoa products, and water and isotonic beverages were available ad libitum.
A liquid–liquid extraction and protein precipitation with acetonitrile was used to isolate metabolites from plasma. A 1 mL defrosted plasma sample was mixed with 50 μL of ascorbic acid (0.2 g/mL). After vortexing the aqueous mixture, it was added drop wise to 750 μL of cold acetonitrile and vortexed for 2 min before centrifuging at 12,000 rpm for 10 min at 4 °C. The supernatant was separated, and the pellet was re-extracted twice more following the same procedure. Supernatants were combined and reduced to dryness under a stream of nitrogen at 30 °C. The dried samples were resuspended in 150 μL of aqueous formic acid (0.1%) containing 10% acetonitrile acidified with 0.1% formic acid and centrifuged at 4 °C for 20 min at 14,000 rpm. The final supernatant was collected, filtered (0.45 μm pore-size, cellulose-acetate membrane filters, Albet, Dassel (Germany)) and 30 μL were analyzed by high-performance liquid chromatography coupled to electrospray ionisation and quadrupole time-of-flight mass spectrometry (HPLC-ESI-QToF-MS).
Analyses were performed on an Agilent 1200 series LC system coupled to an Agilent 6530A Accurate-Mass Quadrupole Time-Of-Flight (Q-ToF) with ESI-Jet Stream Technology (Agilent Technologies). Compounds were separated on a reverse-phase Ascentis Express C18 (15 cm × 3 mm, […]) column (Sigma-Aldrich Química, Madrid) preceded by a Supelco 55215-U guard column at 30 °C. […]

[4] = set-up: method as in PMID 23864538; conditions: based on recovery in the perfusion fluid, eight volunteers; cited from earlier work
[5] = after CC-PP (68.25 mg flavanols)

| SMILES | Excretion ([1]; after ingestion of chocolate providing 220 mg of flavanols) | Excretion ([1]; after ingestion of cocoa providing 220 mg of flavanols) | Detection of un-metabolized compound in urine ([2]; any of the interventions (CC, CC-PP)) | Detection of un-metabolized compound in the collected biological fluids ([3]; plasma and urine, CC and CC-PP) | Jejunal absorption, average [4] | Excreted in urine, Total ([2]; after CC (19.80 mg flavanols)) | Excreted in urine, 0–4 h ([2]; after CC (19.80 mg flavanols)) | Excreted in urine, 4–8 h ([2]; after CC (19.80 mg flavanols)) | Excreted in urine, 8–12 h ([2]; after CC (19.80 mg flavanols)) | Excreted in urine, 12–24 h ([2]; after CC (19.80 mg flavanols)) | Excreted in urine, Total [2, 5] | Excreted in urine, 0–4 h [2, 5] | Excreted in urine, 4–8 h [2, 5] | Excreted in urine, 8–12 h [2, 5] | Excreted in urine, 12–24 h [2, 5] | AUC ([3]; both sexes, oral, human plasma 0-8 h, after CC-PP (68.25 mg flavanols), mean ± SD, n = 13, read-out: AUC) | Tmax ([3]; both sexes, oral, human plasma, after CC-PP (68.25 mg flavanols), mean ± SD, n = 13, read-out: Tmax) | Cmax ([3]; both sexes, oral, human plasma, after CC-PP (25 g in 200 mL semi-skimmed milk, 68.25 mg flavanols), mean ± SD, n = 13, read-out: Cmax) |
| --- | --- | --- | --- | --- | --- | --- | --- | --- | --- | --- | --- | --- | --- | --- | --- | --- | --- | --- |
| Oc1cc(O)c2c(c1)O[C@H](c1ccc(O)c(O)c1)[C@H](O)C2 [epicatechin] | 29.8% | 25.3% | Neither epicatechin nor PB2 dimer was detected in urine | Neither un-metabolized epicatechin and catechin nor procyanidins B1 and B2 were detected | ~ 46% |  |  |  |  |  |  |  |  |  |  |  |  |  |
| COc1cc([C@H]2Oc3cc(OS(=O)(=O)O)cc(O)c3C[C@H]2O)ccc1O (single isomer, unassigned) [Epicatechin-methoxy-sulfate (isomer 2), Epicatechin-methoxy-sulfate] |  |  |  |  |  | 0.428 ± 0.062 µmol | 0.181 ± 0.032 µmol | 0.247 ± 0.030 µmol | <L.Q. | <L.Q. | 1.200 ± 0.293 µmol | 0.566 ± 0.152 µmol | 0.557 ± 0.120 µmol | 0.077 ± 0.021 µmol | <L.Q. | 0.145 ± 0.107 µM·h | 1.3 ± 0.5 h | 41 ± 4 nM |
